In ChEMBL document CHEMBL3137667, “[Drug-induced liver injury; fourteenth updated edition of the bibliographic database of liver injuries and related drugs]” (Gastroenterol Clin Biol, 2004):

Assays:
[1] = human
[2] = human, serum
[3] = human; remark: listed apart in the source
[4] = human; remark: listed apart in the source
[5] = human; remark: listed apart in the source
[6] = human; remark: listed apart in the source
[7] = human; remark: listed apart in the source
[8] = Highest frequency of moderate liver toxicity observed during clinical trials, expressed as a percentage. [column '% BIOL' in source]; details: human
[9] = human; remark: listed apart in the source
[10] = human, serum, 4383 h
[11] = human, serum; remark: listed apart in the source
[12] = human; remark: listed apart in the source
[13] = Highest frequency of acute liver toxicity observed during clinical trials, expressed as a percentage. [column '% AIGUE' in source]; details: human
[14] = human; remark: listed apart in the source
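Throughout, for Hepatotoxicity (association with vascular disease): count of indexed literature references reporting vascular liver injury in humans, e.g. peliosis hepatitis, hepatic veno-occlusive disease or Budd-Chiari syndrome.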
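Throughout, for Hepatotoxicity (benign tumour): value is a count of indexed literature references citing a benign tumour confirmed by histopathology.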
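Throughout, for Hepatotoxicity (choleostasis): human cholestatic liver injury, shown by histopathology or by peak ALT or AST elevation over alkaline phosphatase ratio below 2, value counts indexed literature reports.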
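Throughout, for Hepatotoxicity (chronic liver disease): chronic liver injury confirmed by histopathology or persistently raised serum aminotransferase activity beyond 6 months, value given as the count of indexed literature references.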
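Throughout, for Hepatotoxicity (cirrhosis): value is a count of indexed literature references reporting cirrhosis confirmed by histopathology.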
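Throughout, for Hepatotoxicity (cytolytic): human cytolytic liver injury, shown by histopathology or by a ratio above 5 of peak ALT or AST elevation to alkaline phosphatase elevation, value counts indexed references.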
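Throughout, for Hepatotoxicity (granulomatous hepatitis): value is a count of indexed literature references reporting granulomatous liver disease confirmed by histopathology.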
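Throughout, for Hepatotoxicity (malignant tumour): malignant tumour confirmed by histopathology, value gives the count of indexed literature references reporting it.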
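Throughout, for Hepatotoxicity (severe hepatitis): human clinical data: severe hepatitis, meaning potentially life-threatening liver failure or clinically observed cases, the value counts how many indexed literature references report it.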
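Throughout, for Hepatotoxicity (steatosis): steatosis confirmed by histopathology, value is the count of indexed references.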

Row | SMILES | Hepatotoxicity (malignant tumour) [1] | Hepatotoxicity (moderate) [2] | Hepatotoxicity (choleostasis) [3] | Hepatotoxicity (association with vascular disease) [4] | Hepatotoxicity (cirrhosis) [5] | Hepatotoxicity (cytolytic) [6] | Hepatotoxicity (granulomatous hepatitis) [7] | Hepatotoxicity (moderate) [8] | Hepatotoxicity (steatosis) [9] | Hepatotoxicity (chronic liver disease) [10] | Hepatotoxicity (acute) [11] | Hepatotoxicity (severe hepatitis) [12] | Hepatotoxicity (acute) [13] | Hepatotoxicity (benign tumour) [14] | Hepatotoxicity (choleostasis) ([3]; Liver) | Hepatotoxicity (cytolytic) ([6]; Liver) | Hepatotoxicity (granulomatous hepatitis) ([7]; Liver) | Hepatotoxicity (moderate) ([8]; Liver) | Hepatotoxicity (severe hepatitis) ([12]; Liver) | Hepatotoxicity (acute) ([13]; Liver)
1 | O=CN(O)CCCP(=O)(O)O [FOSMIDOMYCIN] | 0 | 1 | 0 | 0 | 0 | 0 | 0 | 7.7% | 0 | 0 | 0 | 0 | 0% | 0 | – | – | – | – | – | –
2 | CCOP(=O)(OCC)C(C)NC(=O)N(CCCl)N=O (stereo not given) [FOTEMUSTINE] | 0 | 9 | 0 | 0 | 0 | 0 | 0 | 30.8% | 0 | 0 | 1 | 0 | 0% | 0 | – | – | – | – | – | –
3 | CO[C@@H]1[C@H](OC(=O)/C=C/C=C/C=C/C=C/C(=O)O)CC[C@]2(CO2)[C@H]1[C@@]1(C)O[C@@H]1CC=C(C)C [FUMAGILLIN] | 0 | 2 | 0 | 0 | 0 | 1 | 0 | 16.7% | 0 | 0 | 1 | 0 | 3.4% | 0 | – | – | – | – | – | –
4 | COc1ccc(CCN(C)CCCC(C#N)(c2cc(OC)c(OC)c(OC)c2)C(C)C)cc1OC (stereo not given) [GALLOPAMIL] | 0 | 1 | 0 | 0 | 0 | 0 | 0 | 4% | 0 | 0 | 0 | 0 | 0% | 0 | – | – | – | – | – | –
5 | CC(C)=CCC/C(C)=C/CC/C(C)=C/CCC(=O)OC/C=C(\C)CCC=C(C)C [GEFARNATE] | 0 | 1 | 0 | 0 | 0 | 0 | 0 | 1% | 0 | 0 | 0 | 0 | 0% | 0 | – | – | – | – | – | –
6 | C[C@H]([C@](O)(Cn1cncn1)c1ccc(F)cc1F)S(C)(=O)=O [GENACONAZOLE] | 0 | 1 | 0 | 0 | 0 | 0 | 0 | 33.3% | 0 | 0 | 0 | 0 | 0% | 0 | – | – | – | – | – | –
7 | CC1(C)CC(=O)N(CCCCN2CCN(c3ncccn3)CC2)C(=O)C1 [GEPIRONE] | 0 | 1 | 0 | 0 | 0 | 0 | 0 | 3.3% | 0 | 0 | 0 | 0 | 0% | 0 | – | – | – | – | – | –
8 | C#C[C@]1(O)CC[C@H]2[C@@H]3CCC4=CC(=O)CCC4=C3C=C[C@@]21CC [GESTRINONE] | 0 | 1 | 0 | 0 | 0 | 0 | 0 | 0.8% | 0 | 0 | 0 | 0 | 0% | 0 | – | – | – | – | – | –
9 | Cc1cc(C(=O)NCCc2ccc(S(=O)(=O)NC(=O)NN3CCCCCC3)cc2)no1 [GLISOXEPIDE] | 0 | 1 | 0 | 0 | 0 | 0 | 0 | 0% | 0 | 0 | 0 | 0 | 0% | 0 | – | – | – | – | – | –
10 | CC(C)C[C@H](NC(=O)[C@@H](COC(C)(C)C)NC(=O)[C@H](Cc1ccc(O)cc1)NC(=O)[C@H](CO)NC(=O)[C@H](Cc1c[nH]c2ccccc12)NC(=O)[C@H](Cc1cnc[nH]1)NC(=O)[C@@H]1CCC(=O)N1)C(=O)N[C@@H](CCCNC(=N)N)C(=O)N1CCC[C@H]1C(=O)NNC(N)=O [GOSERELIN] | 0 | 5 | 0 | 0 | 0 | 0 | 0 | 7.8% | 0 | 0 | 0 | 1 | 0% | 0 | – | – | – | – | – | –
11 | Cc1cc2c(C(C)C)c(O)c(O)c(C=O)c2c(O)c1-c1c(C)cc2c(C(C)C)c(O)c(O)c(C=O)c2c1O [GOSSYPOL] | 0 | 1 | 0 | 0 | 0 | 0 | 0 | 93% | 0 | 0 | 0 | 0 | 0% | 0 | – | – | – | – | – | –
12 | Cc1c(F)c(N2CCNC(C)C2)cc2c1c(=O)c(C(=O)O)cn2C1CC1 (stereo not given) [GREPAFLOXACIN] | 0 | 22 | – | 0 | 0 | – | – | – | 0 | 0 | 0 | – | – | 0 | 0 | 0 | 0 | 14.3% | 0 | 0%
13 | CCCCN(CCCC)CCC(O)c1cc2c(Cl)cc(Cl)cc2c2cc(C(F)(F)F)ccc12 (stereo not given) [HALOFANTRINE] | 0 | 8 | 0 | 0 | 0 | 0 | 0 | 29% | 0 | 0 | 0 | 0 | 0% | 0 | – | – | – | – | – | –
14 | CC(=O)NCCOC(=O)C(Oc1cccc(C(F)(F)F)c1)c1ccc(Cl)cc1 (stereo not given) [HALOFENATE] | 0 | 1 | 0 | 0 | 0 | 0 | 0 | 0% | 0 | 0 | 0 | 0 | 0% | 0 | – | – | – | – | – | –
15 | O=C(NCCN1CCC(n2c(=O)[nH]c3cc(Cl)ccc32)CC1)c1ccc(F)cc1 [HALOPEMIDE] | 0 | 1 | 0 | 0 | 0 | 0 | 0 | 27% | 0 | 0 | 0 | 0 | 0% | 0 | – | – | – | – | – | –
